This note sets out measurements from patent publication US9216147B2, “Mild cosmetic cleansing composition” (Henkel AG & Co. KGaA, priority 2011, dated 2015).

Series [1] is described as follows: Irritation test (reaction time method) against commercially available baby and children's shampoos. The settings on record: 5% in water (reference). The method, then:
Cleansing agents 1 and 2 were compared in a test (reaction time method) with various commercially available baby and children's shampoos. The shampoos were diluted down to 50% with water in each case.
A 5% sodium laureth sulfate solution served as a reference.
A Q value of >1.20 denotes an irritating effect; a Q value of <0.8 denotes slight irritation.

Series [2] is described as follows: pH of the diluted test solution. The series is classed as physicochemical. The settings on record: 5% in water.

For the substance “sodium laureth sulfate [Reference (SLES, 5% in water)]”, in series [1], the “Reaction time method [Q]” value was determined as 1.00. The substance also returned a pH in series [2] of 7.2.
